In patent publication EP0002400A1, “Thiazole derivatives, their preparation, intermediates and their use in therapeutics” (SYNTHELABO, priority 1977, dated 1979):

Test system: pointes ponto-géniculo-occipitales (P.G.O.)
Experiment: Reserpine-induced ponto-geniculo-occipital (PGO) spikes in the curarized cat
Format: in vivo, chat
Conditions: Felis catus, iv, 0.5 h; dose reducing number of PGO spikes by 50%; cat given réserpine 0,75 mg/kg i.p.; increasing i.v. doses every 30 min, 4H30 after réserpine; read-out: P G O DE 50
From the text: Par ailleurs in a étudié l'action des drogues sur les pointes pontc-géniculo-occipitales lors du syndrome réser- pinique chez le chat curarisé, afin de mettre en évidence les propriétés antidépressives des composés.
Che= le chat, on enregistre une activité spécifique au niveau du pont, du noyau genouillé latéral et du cortex occipital qui fut appelée pointes ponto-géniculo-occipitales (P.G.O.).
Cette activité spontanée, (pointes P.G.O.), apparaissant lors du =ycle veille-sommeil, peut être induite par la réserpiné, agent pharmacologique diminuant le taux des monoamines cérébrales.
Cette activité électroencéphalographique, modulée par des mécanismes neuronaux sous le contrôle de neurotransmetteurs sy=aptiques, constitue donc un test pharmacologique pour l'étude de l'action centrale des drogues.
Toutes les expériences sont réalisées de manière aiguë sur des chats des deux sexes de 2 à 3 kg.
Avant le débtt de la préparation chirurgicale effectuée scis narcose à l'éther, l'animal reçoit une injection in- trapéritonéale de 0,75 mg/kg i.p. de réserpine.
Le chat est intubé pour permettre une ventilation artificielle.
Un anesthésique local (xylocalne à 2%) est injecté au niveau des points de pression et des incisions.
Des canules sont placées au niveau de la veine fémorale, pour l'injection des produits et l'infusion d'un agent curarisant, la gallamine triethiodide (Flaxédil^R), et de l'artère fémorale pour l'enregistrement de la pression artérielle.
Des électrodes monopolaires sont vissées α- niveau cortical et des électrodes bipolaires coaxiales sont placées sté- réotaxiquement au niveau des noyaux genouillés latéraux.
L'animal curarisé et ventilé artificiellement est maintenu à température constante tout au long de l'expérience.
L'électroencéphalogramme, l'électrocardiogramme et la pression artérielle sont enregistrés à l'aide d'un polygraphe : Grass modèle 79 D.
Des doses croissantes (0,1; 0,3; 1; 3; 10 et 30 mg/kg) des produits à étudier sont injectées par voie intraveineuse toutes les 30 minutes, 4H30 après l'administration de la réserpine.
Le nombre des pointes P.G.O. est comptabilisé automatiquement par périodes de 10 minutes et exprimé en pourcentage par périodes de 30 minutes en prenant la valeur obtenue lors des 30 minutes de contrôle comme référence (100%).
La dose efficace réduisant de 50% (DE 50) le nombre des pointes P.G.O. est calculée à l'aide d'une courbe de regression semi-logarithmique.

Compound | ED50
FC(F)(F)c1ccccc1OCC1=CSC2=NCCN12 [compound 21] | 0.2 mg/kg
C1=C(COc2ccccc2-c2ccccc2)N2CCN=C2S1 [compound 31] | 0.24 mg/kg
Clc1cccc(OCC2=CSC3=NCCN23)c1 [compound 9] | 1 mg/kg
C1=C(COc2ccccc2)N2CCN=C2S1 [compound 5, Chlorhydrate du phénoxyméthyl-3 dihydro-5,6 imidazo [2,1-b] thiazole] | 1.2 mg/kg
Brc1ccccc1OCC1=CSC2=NCCN12 [compound 18] | 0.14 mg/kg
Clc1ccccc1OCC1=CSC2=NCCN12 [compound 11] | 0.24 mg/kg
Cc1ccc(OCC2=CSC3=NCCN23)cc1 [compound 12] | 0.8 mg/kg
Cc1ccccc1OCC1=CSC2=NCCN12 [compound 10, Chlorhydratede (méthyl-2 phénoxy-méthyl)-3 dihydro-5,6 imidazo-[2,1-b] thiazole] | 0.3 mg/kg
COc1ccc(OCC2=CSC3=NCCN23)cc1 [compound 6] | 1 mg/kg
C1=C(CSc2ccccc2)N2CCN=C2S1 [compound 1, Chlorhydratede phénylthiométhyl-3 dihydro-5,6 imidazo [2,1 - b] thiazole] | 0.4 mg/kg
CCOc1ccccc1OCC1=CSC2=NCCN12 [compound 24] | 0.5 mg/kg
COc1ccccc1OCC1=CSC2=NCCN12 [compound 3] | 0.4 mg/kg
